Assay results reported in US20090074885A1, “Reversible Hydrophobic Modification of Drugs for Improved Delivery to Cells” (Roche Madison Inc., priority 2003, published 2009).

Legend:
[1] = system: Jurkat (human T-lymphocyte) cells; assay: In vitro cellular uptake by fluorescence microscopy, Jurkat; format: cell-based; details: FIG. 5B
Procedure: In Vitro cellular uptake of PI, RRH-PI compounds, and IV evaluated by fluorescence measurements. […] Adherent cells were plated at 2.5×10^5 cells/well on 6-well plates 24 h prior to testing. The growth media was removed from individual wells and the drug/prodrug was immediately added to the well with the mixing chamber. […] After 30 sec the drug solution was removed (aspirated) and 2 ml complete media was added to the cells. Experiments conducted with prodrug that was hydrolyzed prior to application to the cells followed a similar protocol, however the combined solution obtained after passing through the mixing chamber was collected and allowed to sit at ambient temperature for 5 min prior to application on the cells. Experiments conducted with Calcein AM (Invitrogen, 100 μl of 20 μM solution in complete media) followed a similar protocol for drug treatment (4 min treatment). Experiments conducted with SYTOX Green (Invitrogen) followed a similar protocol for drug treatment. […] Each condition was repeated in 2 or 3 wells, and the cells were immediately examined by microscopy. Fluorescent microscopy studies were conducted with a three laser LSM 510 confocal microscope, an Axiovert S100 fluorescent microscope, or an Axioplan2 fluorescent microscope (all Zeiss) equipped with filter sets for the rhodamine fluorescence channel (λex=BP 450/12, λem=LP 590 nm filter set) and the fluorescein fluorescent channel (λex=BP 546/90, λem=LP 515 nm filter set). Imaging was performed with an AxioCam digital camera (Zeiss), with AxioVision imaging software (V 4.5, Zeiss). For all images, identical camera settings and exposure times were used on comparative sample and control images. Images were processed with Photoshop (Adobe) for level and brightness using identical settings between sample and control images. For experiments conducted on Jurkat cells (8.0×10^5 cells/ml in media), the cells were isolated by centrifugation and resuspended in ITG at a density of 4.0×10^6 cells/ml. Exposure to the drug/prodrug was conducted by passing the cells in suspension in ITG (200 μl) through the mixing chamber. […]

SK-OV-3 ovarian tumors = assay: Intraperitoneal perfusion chemotherapy (IPPC) in SK-OV-3 mouse model; format: in vivo
Procedure: In a separate experiment, ovarian cancer development was monitored until signs of ascitis (4-5 wks). At this time, a test IPPC injection was conducted with C12PMMA-PI by adapting methodology typically used for peritoneal perfusion. Briefly, two 23 G Abbocath-T effluent catheters with multiple perforations were inserted into the peritoneal cavity and advanced to the region of the ovaries on both sides of the vertebra. The ascitic fluid was slowly aspirated with minimal negative pressure. Then an additional 23 G perforated catheter was inserted into abdomen and positioned on top of abdominal organs. 1 mL of drug/DMF/ITG solution was infused over 1 min, followed by repeated gentle massage. 5-7 min post administration, peritoneal fluid was again aspirated, and the peritoneal cavity was perfused with 10 mL of PBS via the top catheter, together with simultaneous aspiration via the lower two catheters. Special care was taken to avoid elevated abdominal pressure during the procedure. […] Confocal microscopy indicated a similar staining pattern as observed previously, with strong propidium iodide nuclear labeling of all of the outer cells exposed to peritoneal cavity, including ovarian tumors. […] All cells exposed to peritoneal cavity and thereby to the prodrug solution indicated prodrug uptake and staining, including: mesentery cells, outer layer of cells of abdominal organs, and disseminated peritoneal ovarian tumors. The tumor lesions still appeared to be more susceptible to drug uptake, indicating both greater tissue penetration and intense PI^+-staining as compared to normal abdominal tissue, with the exception of the mesentery which was also was heavily PI^+.

MC38 tumor = assay: Survival after LABI in MC38 tumor bearing mice; format: in vivo, C57BL mice; details: 0.150 μmol by LABI, compared to hydrolyzed C12PMMA-PI
Procedure: FIG. 13. Days of survival following LABI delivery of C12PMMA-PI (III) or hydrolyzed C12PMMA-PI to C57BL mice. Following three weeks of MC38 tumor development C12PMMA-PI or Hydrolyzed C12PMMA-PI (0.150 μmol in 20 μl DMSO, 200 μl ITG) were delivered by LABI. The mouse abdomen was closed 4 min after drug treatment and the animals were monitored for survival time.
In vivo antitumor effect following a liver arterial bolus injection with a RRH-PI to MC 38 tumor bearing mice. LABI was conducted as previously described in order to monitor the antitumor effect of an RRH-PI prodrug. In the experiment, III (n=11) or hydrolyzed C12PMMA-PI (n=9) were injected as previously described, the mouse abdomen was closed after drug treatment and the animals were monitored for survival time. Statistical analysis was conducted using a t-test (two tailed distribution and two sample—unequal variance, Excel).

cells = assay: SYTOX Green dead cell indicator after prodrug treatment; format: cell-based; details: following treatment with prodrug
Procedure: (§1) In Vitro cellular uptake of PI, RRH-PI compounds, and IV evaluated by fluorescence measurements. PI and the RRH-prodrugs were tested for cellular uptake on several cell lines which included B16 (murine melanoma), Hepa 1-6 (mouse hepatoma), SK-OV-3 (also SKOV-3, human ovarian carcinoma), OVCAR-3 (human ovarian carcinoma), Jurkat (human T-lymphocyte), 293 (human embryonic kidney), and MC38 (mouse colon carcinoma) cells. Adherent cells were plated at 2.5×10^5 cells/well on 6-well plates 24 h prior to testing. The growth media was removed from individual wells and the drug/prodrug was immediately added to the well with the mixing chamber. Final drug/prodrug concentrations were 0.150 μmol in 220 μl total volume (20 μl OS, 200 μl ITG). After 30 sec the drug solution was removed (aspirated) and 2 ml complete media was added to the cells. […] Fluorescent microscopy studies were conducted with a three laser LSM 510 confocal microscope, an Axiovert S100 fluorescent microscope, or an Axioplan2 fluorescent microscope (all Zeiss) equipped with filter sets for the rhodamine fluorescence channel (λex=BP 450/12, λem=LP 590 nm filter set) and the fluorescein fluorescent channel (λex=BP 546/90, λem=LP 515 nm filter set). […]

Hepa 1-6 cells = assay: Calcein AM live cell marker after prodrug treatment; format: cell-based, mouse; details: following treatment with prodrug
Procedure: as §1

SMILES | cellular uptake and staining [1] | cells stained [1] | labeling of microtumors (0.1-1 mm) (SK-OV-3 ovarian tumors) | depth of labeling of large tumors (5-7 mm) (SK-OV-3 ovarian tumors; 4-5 wks after inoculation) | survival of the perfusion procedure (SK-OV-3 ovarian tumors; sacrificed 3-5 h later) | survival (MC38 tumor) | cells both PI-positive and SYTOX Green positive (cells) | cells both PI and calcein positive (Hepa 1-6 cells)
CC[N+](C)(CC)CCC[n+]1c(-c2ccccc2)c2cc(N)ccc2c2ccc(N)cc21.[I-].[I-] [PI, Propidium iodide, reference compound] | stained very few cells | – | – | – | – | – | – | –
CCCCCCCCCCCCNC(=O)CCC(=CCC(=O)O)C(=O)Nc1ccc2c(c1)c(-c1ccccc1)[n+](CCC[N+](C)(CC)CC)c1cc(NC(=O)C(=CCC(=O)O)CCC(=O)NCCCCCCCCCCCC)ccc21.[I-].[I-] [III, 3,8-bis-[2-(2 carboxyethylidene)-4-(dodecarbamoyl)-1-oxo-butylamine] 5-(3,3-diethyl-3-methylammoniumpropyl) 6-phenyl phenanthridinium diiodide] | strong cellular uptake and staining | ~100% | heavily labeled throughout the tumor | about 500 microns | All animals survived the perfusion well | increased survival | – | –
CCCCCCCCCCCCCCCCCC[Si](C)(C)Nc1ccc2c(c1)c(-c1ccccc1)[n+](CCC[N+](C)(CC)CC)c1cc(N[Si](C)(C)CCCCCCCCCCCCCCCCCC)ccc21.[I-].[I-] [II, 3,8-bis[((dimethyl)octadecylsilazyl)amine] 5-(3,3-diethyl-3-methylammoniumpropyl) 6-phenyl phenanthridinium diiodide] | – | – | – | – | – | – | less than 5% | approximately 86%
